Laboratory results: US5563130A, “Methods for inhibiting angiogenesis, proliferation of endothelial or tumor cells and tumor growth” (American Cyanamid Company, priority 1994, dated 1996)
In brackets after ≈: the same amount, converted by molar mass.

System: Adult Bovine Aortic Endothelial (ABAE) cell line
Test: Antiproliferative activity in ABAE cells, PROTOCOL 1 (48 h, SRB)
Assay type: cell-based
Conditions: Bos taurus
Experimental: PROTOCOL 1, 2, and 3 are described in greater detail hereinbelow. In general, according to PROTOCOLS 1 and 2, the target ABAE and/or Human Tumor cells are exposed to the compound of Formula I for 48 hours. PROTOCOL 3 exposes ABAE cell to the compound for 4 days. A detailed description of the protocol is as follows: Antiproliferative Activity in Human Tumor and Adult Bovine Aortic Endothelial (ABAE) Cell Lines The antiproliferative activity of the compounds of Formula I of the present invention is evaluated in a panel comprised of human tumor cell lines and an adult bovine aortic endothelial cell line (ABAE). […] The number of cells on the plate are quantitated using a protein dye-binding assay (Monks et al., 1991). […] The optical densities are read from an automatic spectrophotometric plate reader (Dynatech) directly to a main frame computer (VAX 8600). […] Mean values and standard errors are determined from duplicate wells. […] The number of cells after treatment (P), as % of control, is calculated for every concentration of drug, as follows: [formula] wherein: T is optical density measurement for treated cells after 48 hours; C is optical density measurement for untreated cells after 48 hours; Co is optical density measurement for cells at the time of drug addition. IC50 of growth inhibition is calculated from the sets of P values using the RS-1 data package (BBN Software). […]

## CN(C)c1ccc(O)c2c1C[C@H]1C[C@H]3[C@H](N(C)C)C(O)=C(C(N)=O)C(=O)[C@@]3(O)C(O)=C1C2=O [Minocycline, reference compound]
  IC50: 6.8 µg/mL (≈ 14.9 µM)
